# Assay results as given in patent US9611258B2, “Dual MEK/PI3K inhibitors and therapeutic methods using the same” (THE REGENTS OF THE UNIVERSITY OF MICHIGAN, priority 2013, dated 2017).
# How the values were obtained:
# [1] = target: PI3K; experiment: PI3K lipid kinase activity, Adapta TR-FRET assay with purified enzyme; type: biochemical; conditions: for IC50: read-out: PI3K inhibition IC50
# Experimental: (§1) Quantitation of PI3K lipid kinase activity of a present compound is determined with purified enzyme using the fluorescence-based Adapta™ TR-FRET assay from InVitrogen (Wisconsin, USA). Quantitation of MEK1 kinase activity of a present compound is determined with purified enzyme using the LanthaScreen® displacement binding assay (Tracer 236) from InVitrogen (Wisconsin, USA). Cellular screening is carried in cultured Panc-1 cells treated for 1 hour with varied doses of the test compound. Effects on pERK and pAKT expression are evaluated by immunoblotting using phospho-specific antibodies (pAKT [Ser473] and pERK1/2 [Thr202/Tyr204]) from Cell Signaling Technology.
# (§2) In Vitro Biochemical and Cell-Based Assays. Detection of PI3K lipid kinase activity was conducted with purified enzyme using the fluorescence-based Adapta™ TR-FRET assay from Invitrogen (Wisconsin, USA). Detection of the MEK1 kinase activity was conducted with purified enzyme using the LanthaScreen® displacement binding assay (Tracer 236) from Invitrogen (Wisconsin, USA). Evaluation of off-target kinase activity was conducted against the kinase screening panel provided by Invitrogen (Wisconsin, USA).
# [2] = target: MEK1 (Homo sapiens, UniProt Q02750); experiment: MEK1 LanthaScreen displacement binding assay (Tracer 236) with purified enzyme; conditions: in vitro, read-out: MEK inhibition IC50
# Chain of MEK1 (Q02750 whole entry): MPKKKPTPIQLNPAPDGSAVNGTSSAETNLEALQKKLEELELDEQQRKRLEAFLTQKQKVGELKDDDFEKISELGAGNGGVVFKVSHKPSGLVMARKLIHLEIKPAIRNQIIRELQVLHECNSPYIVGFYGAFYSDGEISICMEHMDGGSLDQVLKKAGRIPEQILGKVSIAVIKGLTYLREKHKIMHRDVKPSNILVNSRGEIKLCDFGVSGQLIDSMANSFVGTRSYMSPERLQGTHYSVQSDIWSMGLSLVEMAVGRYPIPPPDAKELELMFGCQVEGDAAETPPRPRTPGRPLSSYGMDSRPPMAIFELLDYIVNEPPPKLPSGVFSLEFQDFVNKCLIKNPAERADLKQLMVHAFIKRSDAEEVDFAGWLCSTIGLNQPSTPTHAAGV
# [3] = system: pAKT [Ser473]; experiment: Cellular pAKT expression by immunoblotting in Panc-1 cells; type: cell-based; conditions: Panc-1 cells treated for 1 hour, immunoblot
# Experimental: as §1
# (§3) Cells were cultured in Dulbecco's Modified Eagle's Medium (DMEM) and 10% FBS, and grown in a 37° C. incubator with 5% CO2. Cells were plated at 3×10^5 cells/well in 6 well plates, and the following day were treated for 1 hr at 37° C. Cells were lysed in 50 mM Tris, 1% NP-40, 150 mM NaCl, 10% glycerol, 1 mM EDTA with 1× protease inhibitor (complete; Roche Applied Science) and phosphatase inhibitors (PhosSTOP, Roche Applied Science). Protein concentration was determined with a Dc Protein Assay Kit (BioRad). Proteins were resolved by SDS-PAGE and transferred to nitrocellulose membranes. […]
# [4] = system: PI3K isoforms; experiment: PI3K isoform potency; type: biochemical
# Experimental: as §2
# [5] = system: pERK1/2 [Thr202/Tyr204]; experiment: Cellular pERK expression by immunoblotting in Panc-1 cells; type: cell-based; conditions: Panc-1 cells treated for 1 hour, immunoblot
# Experimental: as §1, §3
# [6] = target: T1, EGFR (Homo sapiens, UniProt P00533); experiment: Off-target kinase selectivity panel (Invitrogen); type: biochemical; conditions: read-out: IC50 against EGFR
# T1 construct: purchased Invitrogen
# T1 sequence (P00533 25-1210): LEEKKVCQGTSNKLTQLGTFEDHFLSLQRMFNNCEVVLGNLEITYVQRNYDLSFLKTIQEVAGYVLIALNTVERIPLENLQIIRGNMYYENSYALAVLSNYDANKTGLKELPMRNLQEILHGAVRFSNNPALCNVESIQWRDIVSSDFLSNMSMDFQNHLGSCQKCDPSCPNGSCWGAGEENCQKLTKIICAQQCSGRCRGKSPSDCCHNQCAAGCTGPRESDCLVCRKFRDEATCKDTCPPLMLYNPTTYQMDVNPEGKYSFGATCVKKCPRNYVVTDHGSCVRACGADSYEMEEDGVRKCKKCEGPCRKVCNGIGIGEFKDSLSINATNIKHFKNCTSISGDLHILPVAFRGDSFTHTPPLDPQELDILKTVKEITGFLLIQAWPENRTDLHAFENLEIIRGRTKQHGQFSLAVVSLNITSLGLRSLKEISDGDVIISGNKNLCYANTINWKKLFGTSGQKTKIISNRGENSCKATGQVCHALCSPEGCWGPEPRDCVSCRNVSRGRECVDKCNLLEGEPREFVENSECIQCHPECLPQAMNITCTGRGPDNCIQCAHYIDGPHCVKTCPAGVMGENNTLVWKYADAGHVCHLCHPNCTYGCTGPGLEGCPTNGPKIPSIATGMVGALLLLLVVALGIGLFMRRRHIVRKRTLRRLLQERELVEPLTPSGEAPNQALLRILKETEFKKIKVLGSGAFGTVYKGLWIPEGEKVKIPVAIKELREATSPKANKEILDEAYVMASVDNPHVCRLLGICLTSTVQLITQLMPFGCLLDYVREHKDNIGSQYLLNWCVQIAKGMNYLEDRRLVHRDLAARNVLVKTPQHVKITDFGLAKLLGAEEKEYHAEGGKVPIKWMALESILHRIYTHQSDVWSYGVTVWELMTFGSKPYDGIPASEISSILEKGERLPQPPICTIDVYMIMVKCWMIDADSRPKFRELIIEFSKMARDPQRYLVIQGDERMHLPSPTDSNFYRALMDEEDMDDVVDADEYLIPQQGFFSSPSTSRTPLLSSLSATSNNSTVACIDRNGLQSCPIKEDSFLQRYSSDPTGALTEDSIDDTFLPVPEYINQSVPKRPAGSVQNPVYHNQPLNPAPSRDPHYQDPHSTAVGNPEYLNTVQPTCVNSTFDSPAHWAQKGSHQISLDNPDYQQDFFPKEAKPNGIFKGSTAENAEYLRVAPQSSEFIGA
# Experimental: as §2
# [7] = target: T2, PKCα (Homo sapiens, UniProt P17252); experiment: Off-target kinase selectivity panel (Invitrogen); type: biochemical; conditions: read-out: IC50 against PKCα
# T2 construct: purchased Invitrogen
# Experimental: as §2
# [8] = target: T3, AurB (Homo sapiens, UniProt Q96GD4); experiment: Off-target kinase selectivity panel (Invitrogen); type: biochemical; conditions: read-out: IC50 against AurB
# T3 construct: purchased Invitrogen
# T3 sequence (Q96GD4 whole entry): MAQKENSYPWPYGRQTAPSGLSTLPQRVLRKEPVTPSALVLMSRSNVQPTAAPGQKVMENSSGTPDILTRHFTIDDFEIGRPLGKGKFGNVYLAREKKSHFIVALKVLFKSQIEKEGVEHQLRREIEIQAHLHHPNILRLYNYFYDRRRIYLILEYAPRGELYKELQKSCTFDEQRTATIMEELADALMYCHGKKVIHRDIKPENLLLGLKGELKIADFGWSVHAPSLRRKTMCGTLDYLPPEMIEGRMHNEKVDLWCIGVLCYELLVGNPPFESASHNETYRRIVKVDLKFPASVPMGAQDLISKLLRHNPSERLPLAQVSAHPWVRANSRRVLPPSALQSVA
# Experimental: as §2
# [9] = target: ERK; experiment: Off-target kinase selectivity panel (Invitrogen); type: biochemical; conditions: read-out: IC50 against ERK
# Experimental: as §2
smiles,measurement,setting,value
FC(F)c1nc2ccccc2n1-c1nc(N2CCNCC2)nc(N2CCOCC2)n1 [MV3-42B],IC50,"[1]; in vitro, purified enzyme",100 nM
O=C(CCCCC[N+](=O)[O-])N1CCN(c2nc(N3CCOCC3)nc(-n3c(C(F)F)nc4ccccc43)n2)CC1 [MV3-44B],PI3K inhibition IC50,"[1]; in vitro, purified enzyme, bound printed without a number",>μM
NCCCCCC(=O)N1CCN(c2nc(N3CCOCC3)nc(-n3c(C(F)F)nc4ccccc43)n2)CC1 [MV3-46A],IC50,"[1]; in vitro, purified enzyme",< 100 nM
same,improvement in PI3K binding affinity,[1]; nitro group (MV3-44B) converted to amino group,10 fold
Cc1c(Cc2cccc(N(C)S(=O)(=O)CCCNCCCCCC(=O)N3CCN(c4nc(N5CCOCC5)nc(-n5c(C(F)F)nc6ccccc65)n4)CC3)c2)c(=O)oc2cc(OC(=O)N(C)C)ccc12 [MV3-65A],IC50,[2],501 nM
same,cellular inhibition of pAKT expression,[3],cellular inhibition of both pERK and pAKT expression was observed
same,IC50,"[1]; in vitro, purified enzyme",370 nM
same,potency against all of the PI3K isoforms,[4],comparably potent against all of the PI3K isoforms
same,cellular inhibition of pERK expression,[5],cellular inhibition of both pERK and pAKT expression was observed
same,IC50,[6],> 10000 nM
same,IC50,[7],> 10000 nM
same,IC50,[8],> 10000 nM
same,IC50,[9],> 10000 nM
